The record followed here is BindingDB's records for doi:10.1021/jm00092a019 (Bristol-Myers Squibb Pharmaceutical Research Institute, 1992).

Each structure is given as a SMILES string. pEC50: −log10 of the molar value.

Experiment [1] is described as follows: Inhibition of ADP-induced platelet aggregation in rabbit platelet rich plasma (PRP).
A short description of experiment [2]: Inhibition of platelet aggregation using adenosine diphosphate (ADP) as activating agent in human platelet rich plasma (PRP).
A short description of experiment [3]: Inhibition of platelet aggregation using Adenosine diphosphate (ADP) as activating agent in rabbit platelet rich plasma (PRP).
Experiment [4] is described as follows: Inhibition of platelet aggregation using adenosine diphosphate (ADP) as activating agent in human platelet rich plasma PRP.
Experiment [5] can be described thus: Inhibition of platelet aggregation using Adenosine diphosphate (ADP) as activating agent in rabbit platelet rich plasma (PRP). This is another data set of the same source.
Another experiment has as its target P2Y purinoceptor 12 (Homo sapiens, UniProt Q9H244). The experiment can be described thus: Inhibition of platelet aggregation using adenosine diphosphate (ADP) as activating agent in human platelet rich plasma (PRP).

Sequence of P2Y purinoceptor 12 (Q9H244 whole entry): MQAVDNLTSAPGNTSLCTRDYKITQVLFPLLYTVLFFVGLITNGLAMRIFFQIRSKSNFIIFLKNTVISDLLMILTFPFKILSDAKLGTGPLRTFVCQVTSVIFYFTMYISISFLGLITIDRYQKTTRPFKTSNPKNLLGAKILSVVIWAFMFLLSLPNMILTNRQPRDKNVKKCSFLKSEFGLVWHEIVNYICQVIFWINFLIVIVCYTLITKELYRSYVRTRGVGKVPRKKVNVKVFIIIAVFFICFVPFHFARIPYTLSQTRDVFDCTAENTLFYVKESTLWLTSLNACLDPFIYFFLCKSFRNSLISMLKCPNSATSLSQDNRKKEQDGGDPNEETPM

For orientation: pEC50 means the negative decadic logarithm of the EC50, by convention in mol/L. The low end stands for a high EC50, the high end for a low EC50. In the case of `CC(O)CCCOc1ccc2nc3[nH]c(=O)[nH]c3cc2c1` (stereo unspecified), the figures for the negative-log EC50 (pEC50) in experiment [1] and in experiment [2] were 6.28 and 7.00, respectively. The molecule `CCOC(=O)CN(C(=O)CCCOc1ccc2nc3[nH]c(=O)[nH]c3cc2c1)C1CCCCC1` showed a pEC50 in experiment [3] of 7.70. As to `COC(=O)CCCOc1ccc2nc3[nH]c(=O)[nH]c3cc2c1`, the values for the negative-log EC50 (pEC50) in experiment [4] and in experiment [5] were 7.08 and 7.18, respectively.

`O=c1[nH]c2cc3cc(OCCCS(=O)(=O)c4ccccc4)ccc3nc2[nH]1` showed a negative logarithm of the EC50 (pEC50) in experiment [3] of 6.41.

For the molecule `CN(C(=O)CCCOc1ccc2c(c1)CN1CC(=O)NC1=N2)C1CCCCC1`, the pEC50 is 6.36 in experiment [2] and 7.00 in experiment [5]. As for `CN(C(=O)CCCCc1ccc2nc3[nH]c(=O)[nH]c3cc2c1)C1CCCCC1`, the negative logarithm of the EC50 (pEC50) in experiment [2] was 5.96; in experiment [5], 6.68.

Molecule `O=C(O)CCCCCOc1ccc2nc3[nH]c(=O)[nH]c3cc2c1` gave a pEC50 in experiment [3] of 5.50. The molecule `N#CCCCCOc1ccc2nc3[nH]c(=O)[nH]c3cc2c1` had a negative logarithm of the EC50 (pEC50) in experiment [3] of 5.88.

In turn, `CCOC(=O)C1CCN(C(=O)CCCOc2ccc3nc4[nH]c(=O)[nH]c4cc3c2)CC1` gave a pEC50 in experiment [3] of 6.68.

Turning to `O=C(CCCCc1ccc2nc3[nH]c(=O)[nH]c3cc2c1)NC12C[C@H]3C[C@@H](C1)C[C@@H](C2)C3`, the negative logarithm of the EC50 (pEC50) was 5.28 in experiment [2] and 6.02 in experiment [5]. With `CN(C(=O)CCCOc1ccc2nc3[nH]c(=O)[nH]c3cc2c1)C1CCCCCC1`, the negative-log EC50 (pEC50) in experiment [3] was 7.22.

Turning to `O=c1[nH]c2cc3cc(OCCCc4nnn[nH]4)ccc3nc2[nH]1`, the pEC50 is < 4.00 in experiment [2] and 5.20 in experiment [5]. As to `O=c1[nH]c2cc3cc(OCCCO)ccc3nc2[nH]1`, the pEC50 in experiment [3] is 6.11. On to `Cn1c(=O)[nH]c2nc3ccc(OCCCC(=O)N4CCCCC4)cc3cc21`, for which the pEC50 in experiment [3] is 4.96. On to `CC(=O)CCCOc1ccc2nc3[nH]c(=O)[nH]c3cc2c1`, for which the negative logarithm of the EC50 (pEC50) in experiment [3] is 5.85. On the same count and under the same terms, the same measure for `COC(=O)CCCCOc1ccc2nc3[nH]c(=O)[nH]c3cc2c1`: 6.02. `CNC(=O)CCCOc1ccc2nc3[nH]c(=O)[nH]c3cc2c1`: the pEC50 in experiment [2] is 4.15; in experiment [3], 5.88. For `O=C(O)CCCCOc1ccc2nc3[nH]c(=O)[nH]c3cc2c1` the same measures were < 3.97 and < 3.97. `COC(=O)CCCCCOc1ccc2nc3[nH]c(=O)[nH]c3cc2c1` had a pEC50 in experiment [3] of 7.05.

With `CN(C(=O)CCCCOc1ccc2nc3[nH]c(=O)n(C)c3cc2c1)C1CCCCCC1`, the pEC50 is 6.27 in experiment [2] and 6.85 in experiment [5].

In the case of `CN(C(=O)CCCCOc1ccc2nc3[nH]c(=O)[nH]c3cc2c1)C1CCCCC1`, the negative logarithm of the EC50 (pEC50) in experiment [3] is 8.10. Take `Cn1c(=O)[nH]c2nc3ccc(OCCCC(=O)NC4CCCCC4)cc3cc21`: the negative-log EC50 (pEC50) was 5.11 in experiment [2] and 6.74 in experiment [3]. On to `CN(C(=O)CCCOc1ccc2nc3c(cc2c1)[nH]c(=O)n3C)C1CCCCC1`, for which the results for the negative-log EC50 (pEC50) in experiment [2] and in experiment [5] were 4.48 and 6.28, respectively. Turning to `CC(=O)OCCOc1ccc2nc3[nH]c(=O)[nH]c3cc2c1`, the negative logarithm of the EC50 (pEC50) in experiment [3] is 6.06. `O=C(CCCOc1ccc2nc3[nH]c(=O)[nH]c3cc2c1)N1CCCCC1` had a pEC50 at P2Y purinoceptor 12 of 6.89.

For `O=C(O)CCCOc1ccc2c(c1)CN1CC(=O)NC1=N2`, the pEC50 in experiment [2] is < 4.00; in experiment [5], 5.16. For the molecule `O=C(CCCOc1ccc2nc3[nH]c(=O)[nH]c3cc2c1)NC1CCCCCC1`, the pEC50 was 7.80 in experiment [2] and 6.41 in experiment [5].

As for `COC(=O)CN(C(=O)CCCOc1ccc2nc3[nH]c(=O)[nH]c3cc2c1)C1CCCCC1`, the negative-log EC50 (pEC50) in experiment [2] was 9.15; in experiment [3], 8.22. For `CN(C(=O)CCCOc1ccc2nc3[nH]c(=O)n(C)c3cc2c1)C1CCCCCC1` the same measures were 5.91 and 7.15. On to `Cn1c(=O)[nH]c2nc3ccc(OCCCCC(=O)O)cc3cc21`, for which, in experiment [3], the pEC50 was < 4.00. Molecule `O=C(CCCOc1ccc2nc3[nH]c(=O)[nH]c3cc2c1)NC1CCCC1` showed a pEC50 in experiment [3] of 6.38.

In the case of `N#CCCCOc1ccc2nc3[nH]c(=O)[nH]c3cc2c1`, the values for the negative logarithm of the EC50 (pEC50) in experiment [2] and in experiment [5] were 6.22 and 6.74, respectively.

For the molecule `CN(C(=O)CCCOc1ccc2nc3[nH]c(=O)n(C)c3cc2c1)C1CCCCC1`, the negative logarithm of the EC50 (pEC50) in experiment [3] was 7.30. Consider `O=c1[nH]c2cc3cc(OCCCCS(=O)(=O)c4ccccc4)ccc3nc2[nH]1`, for which the pEC50 in experiment [2] is 8.00; in experiment [5], 6.74. Consider `CN(C(=O)CCCCCOc1ccc2nc3[nH]c(=O)[nH]c3cc2c1)C1CCCCC1`, for which the pEC50 in experiment [2] is 6.27; in experiment [5], 7.70. For `Cn1c(=O)[nH]c2nc3ccc(OCCCS(=O)(=O)c4ccccc4)cc3cc21`, the negative-log EC50 (pEC50) in experiment [3] is 4.30. Take `CN(C)C(=O)CCCOc1ccc2nc3[nH]c(=O)[nH]c3cc2c1`: the pEC50 in experiment [2] was 6.72.

The molecule `O=c1[nH]c2cc3cc(CCCO)ccc3nc2[nH]1` gave a pEC50 in experiment [3] of 5.61.

For the molecule `CN(C(=O)CCCCOc1ccc2nc3[nH]c(=O)[nH]c3cc2c1)C1CCCCCC1`, the negative-log EC50 (pEC50) in experiment [2] is 9.00; in experiment [5] it was 8.30. `COC(=O)CCCOc1ccc2nc3c(cc2c1)[nH]c(=O)n3C`: the pEC50 in experiment [2] was 4.53; in experiment [3], 6.44. As to `CN(C(=O)CCCOc1ccc2nc3c(cc2c1)n(C)c(=O)n3C)C1CCCCC1`, the pEC50 in experiment [3] was 4.57. For `NC(=O)CCCOc1ccc2nc3[nH]c(=O)[nH]c3cc2c1`, the pEC50 in experiment [2] is 5.52; in experiment [3], 5.22.

With `O=C(CCCOc1ccc2nc3[nH]c(=O)[nH]c3cc2c1)NC1CCCCC1`, the pEC50 in experiment [3] was 7.40. For `COC(=O)CCCCc1ccc2nc3[nH]c(=O)[nH]c3cc2c1`, the pEC50 in experiment [2] is 5.52; in experiment [5], 6.37. Consider `O=C(O)CCCCc1ccc2nc3[nH]c(=O)[nH]c3cc2c1`, for which the values for the negative logarithm of the EC50 (pEC50) in experiment [2] and in experiment [5] were < 3.95 and 4.20, respectively. `CC(=O)OCCCCOc1ccc2nc3[nH]c(=O)[nH]c3cc2c1`: the negative-log EC50 (pEC50) in experiment [3] was 6.02. For the molecule `COC(=O)CCCOc1ccc2nc3c(cc2c1)n(C)c(=O)n3C`, in experiment [3], the pEC50 is < 4.06.

As to `CCOCCOc1ccc2nc3[nH]c(=O)[nH]c3cc2c1`, the pEC50 in experiment [3] was 5.32. In the case of `O=C(O)CN(C(=O)CCCOc1ccc2nc3[nH]c(=O)[nH]c3cc2c1)C1CCCCC1`, the figures for the pEC50 in experiment [2] and in experiment [5] were 5.02 and 6.04, respectively. `CN(C(=O)CCCCOc1ccc2nc3[nH]c(=O)n(C)c3cc2c1)C1CCCCC1` had a negative logarithm of the EC50 (pEC50) in experiment [3] of 6.82.

Regarding `Cn1c(=O)[nH]c2cc3cc(OCCCC(=O)O)ccc3nc21`, the figures for the pEC50 in experiment [2] and in experiment [5] were < 4.58 and 5.78, respectively.

Consider `Cn1c(=O)[nH]c2nc3ccc(OCCCC(=O)O)cc3cc21`, for which the negative logarithm of the EC50 (pEC50) in experiment [3] was < 3.97. In experiment [2], `CN(C(=O)CCCOc1ccc2nc3[nH]c(=O)[nH]c3cc2c1)C1CCCCC1` had a negative-log EC50 (pEC50) of 8.15. Regarding `CCOC(=O)CCCOc1ccc2nc3[nH]c(=O)[nH]c3cc2c1`, the results for the negative logarithm of the EC50 (pEC50) in experiment [2] and in experiment [5] were 7.42 and 6.20, respectively. For `O=C(CCCOc1ccc2nc3[nH]c(=O)[nH]c3cc2c1)NC12C[C@H]3C[C@@H](C1)C[C@@H](C2)C3` the same measures were 7.70 and 6.92. `CCOC(=O)CCc1ccc2nc3[nH]c(=O)[nH]c3cc2c1`: the pEC50 in experiment [3] was 6.36. `O=C(CCCCc1ccc2nc3[nH]c(=O)[nH]c3cc2c1)N1CCCCC1`: the results for the pEC50 in experiment [2] and in experiment [3] were 4.81 and 6.38, respectively. Molecule `CCOC(=O)COc1ccc2nc3[nH]c(=O)[nH]c3cc2c1` had a pEC50 in experiment [3] of 4.61. Turning to `O=C(O)COc1ccc2nc3[nH]c(=O)[nH]c3cc2c1`, the negative logarithm of the EC50 (pEC50) in experiment [3] is 5.72. Molecule `COC(=O)C=CC=Cc1ccc2nc3[nH]c(=O)[nH]c3cc2c1` had a pEC50 in experiment [3] of 5.57. On to `O=C(O)C1CCN(C(=O)CCCOc2ccc3nc4[nH]c(=O)[nH]c4cc3c2)CC1`, for which the pEC50 was 4.34 in experiment [2] and 6.42 in experiment [5]. Take `O=c1[nH]c2cc3cc(CCCCCO)ccc3nc2[nH]1`: the negative logarithm of the EC50 (pEC50) in experiment [3] was 5.53. Take `CC(=O)OCCCOc1ccc2nc3[nH]c(=O)[nH]c3cc2c1`: the negative logarithm of the EC50 (pEC50) in experiment [3] is 6.48. On the same count and under the same terms, in the case of `COC(=O)CCCCOc1ccc2nc3[nH]c(=O)n(C)c3cc2c1` it was 5.04. Consider `O=c1[nH]c2cc3cc(OCCCCc4nnn[nH]4)ccc3nc2[nH]1`, for which the pEC50 in experiment [2] was 4.29; in experiment [3], 5.27.

Molecule `CCOC(=O)C=Cc1ccc2nc3[nH]c(=O)[nH]c3cc2c1` gave a negative logarithm of the EC50 (pEC50) in experiment [3] of 6.36.
